Reference: patent US9962388B2, “Pyrrolopyrimidine compounds used as TLR7 agonist” (priority 2014, dated 2018)
Like-named read-outs stand apart in the source and are kept apart here.

Columns and labels:
[1] = tested on: human peripheral blood mononuclear cells (PBMC); assay: Peripheral blood mononuclear cell assay (cytokine induction, CBA); type: cell-based; conditions: for minimal effective concentration: Homo sapiens, read-out: INF-α MEC
Procedure: Peripheral Blood Mononuclear Cell Assay The purpose of this example is to determine the expression level of cytokines 24 h after stimulation to human peripheral blood mononuclear cells (PBMC) with the compounds. The cell supernatant was assayed without dilution and the levels of IFN-α and TNF-α were directly determined. The compound was firstly formulated into 20 mM DMSO stock solution and was gradient diluted with cell medium in 10-fold with the total number of 11 diluting points. The compounds in 9 diluting points (the highest concentration was 200 μmol/L) were added into 96-well plate with 50 μL in each well. Fresh human peripheral blood mononuclear cells were inoculated, with 150 μL in each well containing 450,000 cells. The cell culture plate was incubated in an incubator at 37° C., 5% CO2 for 24 h. After incubation, the culture plate was centrifuged at 1200 rpm for 5 min and the supernatant was collected and stored at −20° C. for determination. The determination of cytokine was performed using Cytometric Bead Array (CBA) of BD-Pharmingen on flow cytometer. Using the above determining method, the lowest drug concentration stimulating cytokine level which is over 3 times greater than the lowest detectable limit was designated as the MEC (Minimal Effective Concentration) value in the cytokine stimulating test.

Toll-like receptor 7 = Toll-like receptor 7 (Homo sapiens (Human), UniProt Q9NYK1); assay: Toll-like receptor 7 in vitro receptor binding activity screen (HEK-blue hTLR7 cell, alkaline phosphatase/Quanti-Blue readout); type: cell-based; conditions: for EC50: HEK-blue hTLR7 cell, read-out: TLR7 EC50
Toll-like receptor 7, sequence (Q9NYK1 27-1049): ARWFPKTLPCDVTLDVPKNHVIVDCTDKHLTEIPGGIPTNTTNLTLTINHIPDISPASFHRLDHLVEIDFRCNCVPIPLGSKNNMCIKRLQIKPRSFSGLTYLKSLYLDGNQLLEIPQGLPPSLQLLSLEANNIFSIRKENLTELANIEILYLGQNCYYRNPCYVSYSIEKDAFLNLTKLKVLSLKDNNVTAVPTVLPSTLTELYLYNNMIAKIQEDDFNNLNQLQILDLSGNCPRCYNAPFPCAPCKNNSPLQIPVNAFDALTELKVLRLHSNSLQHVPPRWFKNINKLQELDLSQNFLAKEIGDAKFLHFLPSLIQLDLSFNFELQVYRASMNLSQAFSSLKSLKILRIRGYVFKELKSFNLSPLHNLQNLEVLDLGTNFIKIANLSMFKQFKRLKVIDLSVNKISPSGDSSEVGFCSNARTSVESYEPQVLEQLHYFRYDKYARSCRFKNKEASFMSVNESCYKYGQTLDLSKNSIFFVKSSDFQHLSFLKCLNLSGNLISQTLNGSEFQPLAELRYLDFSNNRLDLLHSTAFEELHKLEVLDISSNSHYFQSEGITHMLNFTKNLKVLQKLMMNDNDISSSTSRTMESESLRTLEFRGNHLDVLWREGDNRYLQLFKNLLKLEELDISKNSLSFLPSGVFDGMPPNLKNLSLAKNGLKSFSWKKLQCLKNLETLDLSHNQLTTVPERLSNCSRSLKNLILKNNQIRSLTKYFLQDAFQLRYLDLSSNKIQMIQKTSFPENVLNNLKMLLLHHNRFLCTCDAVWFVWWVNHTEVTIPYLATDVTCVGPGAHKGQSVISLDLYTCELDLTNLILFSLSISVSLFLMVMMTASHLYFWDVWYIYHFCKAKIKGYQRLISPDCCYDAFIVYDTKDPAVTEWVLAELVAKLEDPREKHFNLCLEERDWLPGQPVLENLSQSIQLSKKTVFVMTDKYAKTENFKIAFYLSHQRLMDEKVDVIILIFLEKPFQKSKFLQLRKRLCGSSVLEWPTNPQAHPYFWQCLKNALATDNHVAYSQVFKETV
Procedure: (§1) Toll-Like Receptor 7 and Toll-Like Receptor 8 In Vitro Receptor Binding Activity Screen
(§2) HEK-blue hTLR7 cell and HEK-blue hTLR8 cell (available from InvivoGen)
(§3) 1. Preparation of 96-well compound plate:
(§4) The compounds were gradient diluted with DMSO in 3-fold using liquid work station POD starting at a concentration of 10 mmol/L and 10 points were diluted (2nd column to 11th column, and each point was duplicated). At 12th column, 1 μL of 5 mg/mL positive compound R848 was added as positive control; and at 1st column, 1 μL of DMSO was added as negative control. Each well contained 1 μL of DMSO.
(§5) 2. The cells in culture flask were collected and the cell density was diluted to 250,000 cells/mL.
(§6) 3. 200 μL (50,000 cells/well) of cell suspension was added into prepared compound plate and the final concentration of DMSO in each well was 0.5%.
(§7) 4. The culture plates containing cells and the compounds were incubated in CO2 incubator for 24 h at 37° C., 5% CO2.
(§8) 5. After 24 h incubation, 20 μL of supernatant was removed from each well to a 96-well transparent assay plate. To each well of the assay plate was added 180 μL of Quanti-Blue reagent and the plate was incubated in an incubator at 37° C., 5% CO2 for 1 h.
(§9) 6. After 1 h, the content of alkaline phosphatase in 20 μL of supernatant was determined using Microplate Reader OD650.
(§10) 7. EC50 of each compound was obtained with Prism software.

in vivo = conditions: rat
Procedure: 12 male SD rats were divided into 4 groups with 3 SD rats in each group. […] […] Each rat with oral administration was collected for whole blood samples which were prepared into plasma 15, 30 min and 1, 2, 4, 8, 24 h continuously after administration.

duck hepatitis b virus = assay: In vivo pharmacodynamics in duckling model infected with hepatitis B virus; design: species or system Beijing ducks
Procedure: In Vivo Pharmacodynamics in Duckling Model Infected with Hepatitis B Virus
Experimental design and procedures: Beijing ducks of 1 day old were intravenously administered duck hepatitis b virus positive duck serum. After 7 days, the animals were administered according to grouping, 6 ducks in each group. Control group: normal saline. […] The samples were administered intragastricly: 20 mg/kg groups were administered once every third day (one administration every 3 days) and 5 mg/kg groups were administered once every day for 16 days. […] For control group infected with duck hepatitis b virus, solvent was used instead of drug. 7 days after infection, the blood was collected before administration (TO),8 days after administration (T8),16 days after administration (T16) and 3 day after ceasing administration (P3), and the duck serum was separated and frozen for storage. […] Duck serum DNA (DHBV-DNA) determination: different duck sera in a batch were determined for duck blood DHBV-DNA level with real time fluorescent quantitative PCR. Statistics analysis: paired and grouped analysis was used to calculate the significance of inhibition of drug on duck serum DHBV-DNA for assessment.

Toll-like receptor 8 = Toll-like receptor 8 (Homo sapiens (Human), UniProt Q9NR97); assay: Toll-like receptor 8 in vitro receptor binding activity screen (HEK-blue hTLR8 cell, alkaline phosphatase/Quanti-Blue readout); type: cell-based
Toll-like receptor 8, sequence (Q9NR97 27-1041): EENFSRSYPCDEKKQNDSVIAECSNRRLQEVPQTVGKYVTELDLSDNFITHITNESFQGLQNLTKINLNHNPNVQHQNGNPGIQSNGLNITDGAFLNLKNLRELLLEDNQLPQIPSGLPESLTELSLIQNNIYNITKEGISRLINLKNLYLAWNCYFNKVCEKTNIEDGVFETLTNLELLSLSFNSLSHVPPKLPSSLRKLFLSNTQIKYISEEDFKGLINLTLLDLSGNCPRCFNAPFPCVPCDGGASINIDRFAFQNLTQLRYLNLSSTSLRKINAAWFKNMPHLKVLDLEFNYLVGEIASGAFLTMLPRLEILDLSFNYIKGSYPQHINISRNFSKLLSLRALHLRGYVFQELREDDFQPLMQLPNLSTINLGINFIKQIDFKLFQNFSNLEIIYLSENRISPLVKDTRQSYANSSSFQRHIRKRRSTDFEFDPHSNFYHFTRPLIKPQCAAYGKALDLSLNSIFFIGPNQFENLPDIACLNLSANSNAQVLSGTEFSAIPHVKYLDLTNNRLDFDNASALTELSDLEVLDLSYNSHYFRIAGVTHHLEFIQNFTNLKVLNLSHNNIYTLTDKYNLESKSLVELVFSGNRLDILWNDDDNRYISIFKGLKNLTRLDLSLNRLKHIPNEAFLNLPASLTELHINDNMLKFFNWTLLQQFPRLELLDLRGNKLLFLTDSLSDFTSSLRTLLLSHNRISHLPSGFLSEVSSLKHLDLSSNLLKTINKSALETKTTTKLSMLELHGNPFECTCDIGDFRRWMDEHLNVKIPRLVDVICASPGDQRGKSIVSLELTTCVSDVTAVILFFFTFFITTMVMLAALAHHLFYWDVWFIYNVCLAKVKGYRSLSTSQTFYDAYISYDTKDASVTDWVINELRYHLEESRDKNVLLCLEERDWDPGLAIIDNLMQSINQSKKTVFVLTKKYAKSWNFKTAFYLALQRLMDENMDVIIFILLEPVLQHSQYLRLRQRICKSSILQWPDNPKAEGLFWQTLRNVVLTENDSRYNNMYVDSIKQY
Procedure: as §1, §2, §3, §4, §5, §6, §7, §8, §9, §10

hepatitis b virus = assay: In vivo pharmacodynamics in HDI (hydrodynamic injection) mouse model infected with hepatitis b virus; conditions: 20 mg/kg intragastric, once a day, day 1 to day 7; FIGS. 1 and 2
Procedure: In Vivo Pharmacodynamics in HDI (Hydrodynamic Injection) Mouse Model Infected with Hepatitis b Virus
Experimental Design and Procedures:
Route: intragastric administration
Administration time: day 1 to day 7, 7 days in total
At day 1, 3, 5 and 7, plasma samples were collected 4 h after administration; and at day 7, liver sample was collected 4 h after administration.

[2] = PBMC, 24 h, human PBMC, 24 h, Minimal Effective Concentration

CCCCOc1nc(N)c2[nH]cc(Cc3cccc(CN4CCCC4)c3)c2n1 [Example 4, 2-butoxy-7-(3-(pyrrolidine-1-ylmethyl)benzyl)-5H-pyrrolo[3,2-d]pyrimidine-4-amine]
minimal effective concentration [1, 2]: 0.01 to 100 µM | EC50 (Toll-like receptor 7; 24 h): 100 to 1000 nM

CCCCOc1nc(N)c2[nH]cc(Cc3ccc(CN4CCCC4)cc3)c2n1 [Example 21, 2-butoxy-7-(4-(pyrrolidine-1-ylmethyl)benzyl)-5H-pyrrolo[3,2-d]pyrimidine-4-amine]
minimal effective concentration [1, 2]: 1e-05 to 0.001 µM | minimal effective concentration ([1]; PBMC, 24 h, human PBMC, 24 h, head-to-head test): 0.005 µM | TNF-α inducing activity compared with GS-9620 ([1]; PBMC, versus control GS-9620): comparable | in vitro IFN-α inducing activity compared with GS-9620 ([1]; PBMC, versus control GS-9620): higher | TNF-α MEC ([1]; human PBMC, 24 h, head-to-head test): 500 nM | AUC(0-inf) (in vivo; male, SD, iv, 1 mg/kg): 0.676 µM·h | AUC(0-t) (in vivo; male, SD, iv, 1 mg/kg): 0.641 µM·h | Cmax (in vivo; male, SD, iv, 1 mg/kg): 478 nM | Vd (in vivo; male, SD, iv, 1 mg/kg): 29 L/kg | clearance (in vivo; male, SD, iv, 1 mg/kg): 65.8 mL/min/kg | half-life (in vivo; male, SD, iv, 1 mg/kg): 5.76 h | Mean plasma drug concentration (in vivo; male, SD, iv, 1 mg/kg, 0.083 h): 318 nM | Mean plasma drug concentration (in vivo; male, SD, iv, 1 mg/kg, 0.25 h): 141 nM | Mean plasma drug concentration (in vivo; male, SD, iv, 1 mg/kg, 0.5 h): 109 nM | Mean plasma drug concentration (in vivo; male, SD, iv, 1 mg/kg, 1 h): 74.3 nM | Mean plasma drug concentration (in vivo; male, SD, iv, 1 mg/kg, 2 h): 48.9 nM | Mean plasma drug concentration (in vivo; male, SD, iv, 1 mg/kg, 4 h): 37.7 nM | Mean plasma drug concentration (in vivo; male, SD, iv, 1 mg/kg, 8 h): 31.6 nM | Mean plasma drug concentration (in vivo; male, SD, iv, 1 mg/kg, 24 h): 3.94 nM | AUC(0-inf) (in vivo; male, SD, po, 5 mg/kg): 0.749 µM·h | AUC(0-t) (in vivo; male, SD, po, 5 mg/kg): 0.699 µM·h | Cmax (in vivo; male, SD, po, 5 mg/kg): 186 nM | half-life (in vivo; male, SD, po, 5 mg/kg): 6.24 h | Mean plasma drug concentration (in vivo; male, SD, po, 5 mg/kg, 0.25 h): 69.4 nM | Mean plasma drug concentration (in vivo; male, SD, po, 5 mg/kg, 0.5 h): 41.6 nM | Mean plasma drug concentration (in vivo; male, SD, po, 5 mg/kg, 1 h): 36.4 nM | Mean plasma drug concentration (in vivo; male, SD, po, 5 mg/kg, 2 h): 186 nM | Mean plasma drug concentration (in vivo; male, SD, po, 5 mg/kg, 4 h): 51.2 nM | Mean plasma drug concentration (in vivo; male, SD, po, 5 mg/kg, 8 h): 23.9 nM | Mean plasma drug concentration (in vivo; male, SD, po, 5 mg/kg, 24 h): 5.25 nM | exposure compared with GS-9620 (in vivo): higher exposure | half-life compared with GS-9620 (in vivo): longer half-life | Duck serum HBV-DNA inhibition % (duck hepatitis b virus; 5 mg/kg intragastric once every day for 16 days, P3): 95.55 ± 3.56 % | Duck serum HBV-DNA inhibition % (duck hepatitis b virus; 5 mg/kg intragastric once every day for 16 days, T8): 99.96 ± 0.06 % | inhibition rate compared with GS-9620 (duck hepatitis b virus; 5 mg/kg, one administration everyday): significant advantage | Duck serum HBV-DNA inhibition % (duck hepatitis b virus; 20 mg/kg intragastric once every third day, P3 (3 days after ceasing administration)): 92.81 ± 13.79 % | Duck serum HBV-DNA inhibition % (duck hepatitis b virus; 20 mg/kg intragastric once every third day, T8 (8 days after administration)): 100.0 ± 0 % | Duck serum HBV-DNA inhibition % (duck hepatitis b virus; 20 mg/kg intragastric once every third day, T16 (16 days after administration)): 98.80 ± 1.84 % | rebound of HBV-DNA replication (duck hepatitis b virus; 20 mg/kg one administration every third day, 3 days after ceasing administration): no rebound | inhibition rate compared with GS-9620 (duck hepatitis b virus; 20 mg/kg, one administration every third day): roughly comparable | EC50 (Toll-like receptor 8; HEK-blue hTLR8 cell, head-to-head test, read-out: TLR8 EC50): 11600 nM | in vitro receptor binding activity to Toll-like receptor 8 compared with GS-9620 (Toll-like receptor 8; versus control GS-9620): lower | EC50 (Toll-like receptor 7; 24 h): 100 to 1000 nM | EC50 (Toll-like receptor 7; head-to-head test): 160 nM | in vitro receptor binding activity to Toll-like receptor 7 compared with GS-9620 (Toll-like receptor 7; versus control GS-9620): higher | efficacy by HBV copy numbers in plasma and liver compared with GS-9620 (hepatitis b virus): better efficacy

CCCCOc1nc(N)c2[nH]cc(Cc3ccc(CN4CCCC4)nc3)c2n1 [Example 22, 2-butoxy-7-((6-(pyrrolidine-1-ylmethyl)pyridine-3-yl)methyl)-5H-pyrrolo[3,2-d]pyrimidine-4-amine]
minimal effective concentration [1, 2]: 0.001 to 0.01 µM | EC50 (Toll-like receptor 7; 24 h): 100 to 1000 nM

CCCCOc1nc(N)c2[nH]cc(Cc3ccc4c(c3)CNCC4)c2n1 [Example 28, 2-butoxy-7-((1,2,3,4-tetrahydroisoquinoline-7-yl)methyl)-5H-pyrrolo[3,2-d]pyrimidine-4-amine]
minimal effective concentration [1, 2]: 0.001 to 0.01 µM | EC50 (Toll-like receptor 7; 24 h): 100 to 1000 nM
